Measured values as given in PubChem BioAssay (NCI).
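All cell lines were grown in 96-well plates and treated with compound for 48 hours. TGI denotes the concentration required for complete inhibition of growth.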

Key:
Experiment in all cases: inhibition of tumour cell growth, NCI panel, 48 h
[1] = test system: RXF 393 renal
[2] = test system: IGROV1 ovarian
[3] = test system: LOX IMVI melanoma
[4] = test system: RPMI-8226 leukemia
[5] = test system: A498 renal
[6] = test system: SK-MEL-5 melanoma
[7] = test system: SK-MEL-2 melanoma
[8] = test system: TK-10 renal
[9] = test system: T-47D breast
[10] = test system: MDA-N
[11] = test system: ACHN renal
[12] = test system: 786-0 renal
[13] = test system: OVCAR-5 ovarian
[14] = test system: HCC-2998 colon
[15] = test system: SK-MEL-28 melanoma
[16] = test system: OVCAR-4 ovarian
[17] = test system: K-562 leukemia
[18] = test system: UO-31 renal
[19] = test system: NCI/ADR-RES ovarian
[20] = test system: MDA-MB-231 breast
[21] = test system: KM12 colon
[22] = test system: SF-268 CNS
[23] = test system: MOLT-4 leukemia
[24] = test system: U251 CNS
[25] = test system: SF-539 CNS
[26] = test system: NCI-H226 lung
[27] = test system: NCI-H522 lung
[28] = test system: SW-620 colon
[29] = test system: SK-OV-3 ovarian
[30] = test system: BT-549 breast
[31] = test system: HOP-92 NSCLC
[32] = test system: COLO 205 colon
[33] = test system: HOP-62 NSCLC
[34] = test system: MALME-3M melanoma
[35] = test system: MDA-MB-435
[36] = test system: HCT-15 colon
[37] = test system: SNB-19 CNS
[38] = test system: CAKI-1 renal
[39] = test system: OVCAR-3 ovarian
[40] = test system: PC-3 prostate
[41] = test system: SNB-75 CNS
[42] = test system: UACC-257 melanoma
[43] = test system: NCI-H460 lung
[44] = test system: M14 melanoma
[45] = test system: SF-295 CNS
[46] = test system: EKVX NSCLC
[47] = test system: MCF7 breast
[48] = test system: NCI-H23 lung
[49] = test system: A549 NSCLC
[50] = test system: SN12C renal
[51] = test system: HCT-116 colon
[52] = test system: HT29 colon
[53] = test system: DU-145 prostate
[54] = test system: UACC-62 melanoma
[55] = test system: CCRF-CEM leukemia
[56] = test system: HS 578T breast
[57] = test system: SR leukemia
[58] = test system: HL-60(TB) leukemia
[59] = test system: OVCAR-8 ovarian

SMILES: CN(C)S(=O)(=O)n1ccnc1
- TGI [1]: > 100 µM
- TGI [2]: > 100 µM
- TGI [3]: > 100 µM
- TGI [4]: > 100 µM
- TGI [5]: > 100 µM
- TGI [6]: > 100 µM
- TGI [7]: > 100 µM
- TGI [8]: > 100 µM
- TGI [9]: > 100 µM
- TGI [10]: > 100 µM
- TGI [11]: > 100 µM
- TGI [12]: > 100 µM
- TGI [13]: > 100 µM
- TGI [14]: > 100 µM
- TGI [15]: > 100 µM
- TGI [16]: > 100 µM
- TGI [17]: > 100 µM
- TGI [18]: > 100 µM
- TGI [19]: > 100 µM
- TGI [20]: > 100 µM
- TGI [21]: > 100 µM
- TGI [22]: > 100 µM
- TGI [23]: > 100 µM
- TGI [24]: > 100 µM
- TGI [25]: > 100 µM
- TGI [26]: > 100 µM
- TGI [27]: > 100 µM
- TGI [28]: > 100 µM
- TGI [29]: > 100 µM
- TGI [30]: > 100 µM
- TGI [31]: > 100 µM
- TGI [32]: > 100 µM
- TGI [33]: > 100 µM
- TGI [34]: > 100 µM
- TGI [35]: > 100 µM
- TGI [36]: > 100 µM
- TGI [37]: > 100 µM
- TGI [38]: > 100 µM
- TGI [39]: > 100 µM
- TGI [40]: > 100 µM
- TGI [41]: > 100 µM
- TGI [42]: > 100 µM
- TGI [43]: > 100 µM
- TGI [44]: > 100 µM
- TGI [45]: > 100 µM
- TGI [46]: > 100 µM
- TGI [47]: > 100 µM
- TGI [48]: > 100 µM
- TGI [49]: > 100 µM
- TGI [50]: > 100 µM
- TGI [51]: > 100 µM

SMILES: CSc1sc(C)cc1-c1nsc(=O)o1
- TGI [52]: > 100 µM
- TGI [1]: > 100 µM
- TGI [53]: > 100 µM
- TGI [2]: > 100 µM
- TGI [3]: > 100 µM
- TGI [4]: > 100 µM
- TGI [5]: > 100 µM
- TGI [6]: > 100 µM
- TGI [54]: > 100 µM
- TGI [55]: > 100 µM
- TGI [10]: > 100 µM
- TGI [11]: > 100 µM
- TGI [12]: > 100 µM
- TGI [13]: > 100 µM
- TGI [14]: > 100 µM
- TGI [15]: > 100 µM
- TGI [16]: > 100 µM
- TGI [17]: > 100 µM
- TGI [18]: > 100 µM
- TGI [19]: > 100 µM
- TGI [21]: > 100 µM
- TGI [22]: > 100 µM
- TGI [23]: > 100 µM
- TGI [24]: > 100 µM
- TGI [27]: > 100 µM
- TGI [28]: > 100 µM
- TGI [31]: > 100 µM
- TGI [32]: > 100 µM
- TGI [56]: > 100 µM
- TGI [34]: > 100 µM
- TGI [35]: > 100 µM
- TGI [36]: > 100 µM
- TGI [37]: > 100 µM
- TGI [57]: > 100 µM
- TGI [38]: > 100 µM
- TGI [40]: > 100 µM
- TGI [58]: > 100 µM
- TGI [42]: > 100 µM
- TGI [43]: > 100 µM
- TGI [44]: > 100 µM
- TGI [45]: > 100 µM
- TGI [46]: > 100 µM
- TGI [47]: > 100 µM
- TGI [48]: > 100 µM
- TGI [49]: > 100 µM
- TGI [50]: > 100 µM
- TGI [51]: > 100 µM

SMILES: CCOC(=O)CSc1[nH]c2nc(C)nc(Cl)c2c1C#N
- TGI [52]: > 10 µM
- TGI [1]: > 10 µM
- TGI [53]: > 10 µM
- TGI [2]: > 10 µM
- TGI [3]: > 10 µM
- TGI [4]: > 10 µM
- TGI [6]: > 10 µM
- TGI [59]: > 10 µM
- TGI [8]: > 10 µM
- TGI [9]: > 10 µM
- TGI [54]: > 10 µM
- TGI [55]: > 10 µM
- TGI [10]: > 10 µM
- TGI [12]: > 10 µM
- TGI [14]: > 10 µM
- TGI [15]: > 10 µM
- TGI [16]: > 10 µM
- TGI [17]: > 10 µM
- TGI [20]: > 10 µM
- TGI [21]: > 10 µM
- TGI [22]: > 10 µM
- TGI [23]: > 10 µM
- TGI [28]: > 10 µM
- TGI [29]: > 10 µM
- TGI [31]: > 10 µM
- TGI [32]: > 10 µM
- TGI [33]: > 10 µM
- TGI [34]: > 10 µM
- TGI [35]: > 10 µM
- TGI [36]: > 10 µM
- TGI [57]: > 10 µM
- TGI [38]: > 10 µM
- TGI [40]: > 10 µM
- TGI [41]: > 10 µM
- TGI [58]: > 10 µM
- TGI [42]: > 10 µM
- TGI [44]: > 10 µM
- TGI [45]: > 10 µM
- TGI [46]: > 10 µM
- TGI [47]: > 10 µM
- TGI [48]: > 10 µM
- TGI [49]: > 10 µM
- TGI [50]: > 10 µM

SMILES: C=CC1(c2ccc(Cl)c(Cl)c2)OCCO1
- TGI [52]: > 100 µM
- TGI [1]: > 100 µM
- TGI [53]: > 100 µM
- TGI [2]: > 100 µM
- TGI [3]: > 100 µM
- TGI [4]: > 100 µM
- TGI [6]: > 100 µM
- TGI [59]: > 100 µM
- TGI [7]: > 100 µM
- TGI [8]: > 100 µM
- TGI [9]: > 100 µM
- TGI [54]: > 100 µM
- TGI [55]: > 100 µM
- TGI [10]: > 100 µM
- TGI [11]: > 100 µM
- TGI [12]: > 100 µM
- TGI [13]: > 100 µM
- TGI [14]: > 100 µM
- TGI [15]: > 100 µM
- TGI [16]: > 100 µM
- TGI [17]: > 100 µM
- TGI [18]: > 100 µM
- TGI [19]: > 100 µM
- TGI [20]: 3.48 µM
- TGI [21]: > 100 µM
- TGI [22]: > 100 µM
- TGI [23]: > 100 µM
- TGI [24]: > 100 µM
- TGI [26]: > 100 µM
- TGI [27]: > 100 µM
- TGI [28]: > 100 µM
- TGI [29]: > 100 µM
- TGI [31]: > 100 µM
- TGI [32]: > 100 µM
- TGI [56]: > 100 µM
- TGI [33]: 22.8 µM
- TGI [34]: > 100 µM
- TGI [35]: > 100 µM
- TGI [36]: > 100 µM
- TGI [37]: > 100 µM
- TGI [57]: > 100 µM
- TGI [39]: > 100 µM
- TGI [40]: > 100 µM
- TGI [41]: 55.2 µM
- TGI [58]: 67.5 µM
- TGI [42]: > 100 µM
- TGI [43]: > 100 µM
- TGI [44]: > 100 µM
- TGI [45]: > 100 µM
- TGI [46]: > 100 µM
- TGI [47]: > 100 µM
- TGI [48]: > 100 µM
- TGI [49]: > 100 µM
- TGI [50]: > 100 µM
- TGI [51]: > 100 µM
